From patent US12428380B2 (PSYLO PTY LTD, priority 2023, dated 2025) come the findings set out here.

SMILES strings stand for the structures.

Common to all, as to format: cell-based
The target of one assay is T1, 5-HT2A (Homo sapiens, UniProt P28223).
T1 construct: host or cells: HEK293
Briefly: FLIPR Ca2+ flux functional assay, 5-HT2A (HEK293). The settings on record: HEK293 cells expressing 5-HT2A; for Emax: HEK293, agonist activity; for EC50: agonist activity.

Another assay addresses T2, 5-HT2C (Homo sapiens, UniProt P28335).
T2 construct: host or cells: HEK293
T2 sequence (P28335 33-458): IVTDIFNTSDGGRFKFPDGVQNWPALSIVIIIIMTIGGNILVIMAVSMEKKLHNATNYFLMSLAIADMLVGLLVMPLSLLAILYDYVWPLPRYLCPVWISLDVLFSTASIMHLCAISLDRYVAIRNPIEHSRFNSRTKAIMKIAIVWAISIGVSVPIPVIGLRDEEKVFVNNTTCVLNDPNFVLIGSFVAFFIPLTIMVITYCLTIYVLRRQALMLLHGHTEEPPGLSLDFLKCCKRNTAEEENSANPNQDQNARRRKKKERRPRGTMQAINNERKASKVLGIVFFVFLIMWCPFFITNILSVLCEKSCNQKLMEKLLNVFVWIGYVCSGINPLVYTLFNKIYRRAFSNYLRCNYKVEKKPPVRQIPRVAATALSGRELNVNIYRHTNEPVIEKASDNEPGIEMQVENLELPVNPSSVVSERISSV
Briefly: FLIPR Ca2+ flux functional assay, 5-HT2C (HEK293). The settings on record: HEK293 cells expressing 5-HT2C; for Emax: HEK293, agonist activity; for EC50: agonist activity. (In general: Calcium flux is commonly read through the fluorescence of an indicator in the cells.)

The target in the next assay is T3, 5-HT2B (Homo sapiens, UniProt P41595).
T3 construct: host or cells: CHO-K1
T3 sequence (P41595 whole entry, species assumed): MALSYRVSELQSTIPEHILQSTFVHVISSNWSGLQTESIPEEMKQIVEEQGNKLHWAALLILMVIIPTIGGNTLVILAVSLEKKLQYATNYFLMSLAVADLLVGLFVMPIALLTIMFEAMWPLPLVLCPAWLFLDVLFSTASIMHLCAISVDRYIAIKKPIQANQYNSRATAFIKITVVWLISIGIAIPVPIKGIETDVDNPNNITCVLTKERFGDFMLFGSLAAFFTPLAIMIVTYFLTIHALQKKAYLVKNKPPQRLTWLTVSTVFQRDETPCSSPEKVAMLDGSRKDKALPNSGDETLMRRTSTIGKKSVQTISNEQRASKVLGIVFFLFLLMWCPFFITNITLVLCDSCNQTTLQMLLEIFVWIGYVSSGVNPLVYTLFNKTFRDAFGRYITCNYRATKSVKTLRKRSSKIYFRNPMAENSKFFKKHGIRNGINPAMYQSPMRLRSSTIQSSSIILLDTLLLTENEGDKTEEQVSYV
Briefly: Activation in a similar Ca2+ flux assay at a single concentration, 5-HT2B. The settings on record: head prints 10 µM. On the procedure: Activity at 5-HT2A, 5-HT2B and 5-HT2C receptors was determined using a FLIPR Ca2+ flux assay at WuXi AppTec Co. Ltd. (Hong Kong) Discovery Biology Unit according to their standard protocols. Briefly, stably transfected cells expressing the receptor of interest (HEK293 for 5-HT2A and 5-HT2C; CHO-K1 for 5-HT2B) were grown and plated in a 384 well plate and incubated at 37° C. and 5% CO2 overnight. A 250 mM stock solution of probenecid in FLIPR calcium assay buffer (10 mL) was freshly prepared and combined with a fluorescent dye (Fluo-4 Direct) to give a final assay concentration of 2.5 mM. Reference compounds were 4-fold serially diluted and the screening compounds were 3-fold serially diluted in 100% DMSO for 10 points using Agilent Bravo, and 750 nL was added to a 384 well compound plate using Echo along with 30 μL assay buffer. The fluorescent dye was then added to the assay plate along with assay buffer to a final volume of 40 μL. The cell plate was incubated for 50 min at 37° C. and 5% CO2 and placed into the FLIPR Tetra along with the compound plate. 10 μL of references and compounds were then transferred from the compound plate into the cell plate and the fluorescent signal was read.
Activation data are provided in a similar assay tested at a single 10 μM concentration.

T1 sequence (P28223 whole entry): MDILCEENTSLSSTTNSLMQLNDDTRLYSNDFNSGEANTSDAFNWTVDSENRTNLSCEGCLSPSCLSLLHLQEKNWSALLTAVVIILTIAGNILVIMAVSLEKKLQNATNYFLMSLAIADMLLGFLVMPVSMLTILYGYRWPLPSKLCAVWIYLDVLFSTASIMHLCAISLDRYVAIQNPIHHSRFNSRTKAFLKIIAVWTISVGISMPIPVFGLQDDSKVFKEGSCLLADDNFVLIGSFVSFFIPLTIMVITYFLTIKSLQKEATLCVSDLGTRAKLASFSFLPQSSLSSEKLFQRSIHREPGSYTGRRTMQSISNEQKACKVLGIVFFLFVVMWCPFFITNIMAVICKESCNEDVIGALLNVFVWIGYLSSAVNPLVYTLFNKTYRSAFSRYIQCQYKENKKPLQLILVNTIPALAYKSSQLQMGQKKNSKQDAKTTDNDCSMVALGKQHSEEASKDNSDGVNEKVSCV

Turning to `COc1ccccc1CNCCc1n[nH]c2cccc(F)c12` [Example A34, 2-(4-fluoro-1H-indazol-3-yl)-N-(2-methoxybenzyl)ethan-1-amine], at 5-HT2A, the Emax (in general, the greatest response seen or fitted, relative to the assay's reference) was 86% and a half-maximal effect (EC50) was put at 55.2 nM. In addition, on 5-HT2C, the maximum response (Emax) stood at 84% and the 50% effective concentration (EC50) (usually the concentration at which the effect is half-maximal) came to 167 nM. For the same molecule, at 5-HT2B, the “5-HT2B % Activation @ 10 µM” value is listed as 0%.

At 5-HT2A, `CN(C)CCc1n[nH]c2c(F)cc(F)cc12` [Example A35, 2-(5,7-difluoro-1H-indazol-3-yl)-N,N-dimethylethan-1-amine] registered an Emax of 72% and an EC50 of 213 nM. At 5-HT2C, this molecule came in with an Emax of 54% and a concentration giving a half-maximal response (EC50) of 495 nM. Moreover, at 5-HT2B, the “5-HT2B % Activation @ 10 µM” value came to 1%.

For the molecule `CCN(C)CCc1n[nH]c2c(F)cc(F)cc12` [Example A36, 2-(5,7-difluoro-1H-indazol-3-yl)-N-ethyl-N-methylethan-1-amine], at 5-HT2A, the Emax came out at 70% and the EC50 was 361 nM. At 5-HT2C, this molecule came in with an Emax of 55% and a 50% effective concentration (EC50) of 732 nM. Moreover, the “5-HT2B % Activation @ 10 µM” value on 5-HT2B was 0%.

On 5-HT2A, `CC(C)N(C)CCc1n[nH]c2c(F)cc(F)cc12` [Example A37, N-(2-(5,7-difluoro-1H-indazol-3-yl)ethyl)-N-methylpropan-2-amine] yielded an Emax of 57% and an EC50 of 810 nM. On 5-HT2C, this molecule returned an Emax of 11% and a concentration for a half-maximal effect (EC50) of more than 10000 nM. For the same molecule, the “5-HT2B % Activation @ 10 µM” value at 5-HT2B was 0%.

Take `COc1cc(F)cc2[nH]nc(CCN(C)C)c12` [Example A38, 2-(6-fluoro-4-methoxy-1H-indazol-3-yl)-N,N-dimethylethan-1-amine]: the Emax on 5-HT2A stood at 77%; at 5-HT2C, 75%. For the same molecule, the concentration for a half-maximal effect (EC50) at 5-HT2A stood at 75 nM; at 5-HT2C, 203 nM. In addition, the “5-HT2B % Activation @ 10 µM” value at 5-HT2B came to 0%.

On to `CCN(C)CCc1n[nH]c2cc(F)cc(OC)c12` [Example A39, N-ethyl-2-(6-fluoro-4-methoxy-1H-indazol-3-yl)-N-methylethan-1-amine], for which the Emax on 5-HT2A came to 75%; at 5-HT2C it was 78%. For the same molecule, the EC50 at 5-HT2A stood at 116 nM; on 5-HT2C, 375 nM. Moreover, the “5-HT2B % Activation @ 10 µM” value on 5-HT2B is recorded as 0%.

As to `COc1cc(F)cc2[nH]nc(CCN(C)C(C)C)c12` [Example A40, N-(2-(6-fluoro-4-methoxy-1H-indazol-3-yl)ethyl)-N-methylpropan-2-amine], the maximal effect (Emax) at 5-HT2A is 72%; on 5-HT2C, 68%. The EC50 on 5-HT2A is 322 nM; on 5-HT2C it was more than 10000 nM. Further, on 5-HT2B, the “5-HT2B % Activation @ 10 µM” value was 0%.

As to `COc1cc(F)cc2[nH]nc(CCN3CCC4CC43)c12` (centres unmarked) [Example A43, 3-(2-(2-azabicyclo[3.1.0]hexan-2-yl)ethyl)-6-fluoro-4-methoxy-1H-indazole], at 5-HT2A, the maximal response (Emax) was found to be 89% and the concentration for a half-maximal effect (EC50) amounted to 29.7 nM. Moreover, at 5-HT2C, the Emax was found to be 99% and the EC50 stood at 39.9 nM. The “5-HT2B % Activation @ 10 µM” value on 5-HT2B was determined as 102%.

Turning to `COc1ccc(F)c2[nH]nc(CCN(C)C)c12` [Example A44, 2-(7-fluoro-4-methoxy-1H-indazol-3-yl)-N,N-dimethylethan-1-amine], on 5-HT2A, the Emax is 52% and a half-maximal response (EC50) required 93 nM. Besides, on 5-HT2C, the maximum response (Emax) amounted to 44% and a half-maximal response (EC50) required 222 nM. Besides, the “5-HT2B % Activation @ 10 µM” value on 5-HT2B is 0%.

On 5-HT2A, `CCN(C)CCc1n[nH]c2c(F)ccc(OC)c12` [Example A45, N-ethyl-2-(7-fluoro-4-methoxy-1H-indazol-3-yl)-N-methylethan-1-amine] returned an Emax of 67% and an EC50 of 163 nM. At 5-HT2C, the Emax was determined as 61% and the response was half-maximal at 614 nM (EC50). Also, the “5-HT2B % Activation @ 10 µM” value at 5-HT2B is 0%.

On 5-HT2A, `COc1ccc(F)c2[nH]nc(CCN(C)C(C)C)c12` [Example A46, N-(2-(7-fluoro-4-methoxy-1H-indazol-3-yl)ethyl)-N-methylpropan-2-amine] displayed an Emax of 74% and a concentration for a half-maximal effect (EC50) of 133 nM. Also, at 5-HT2C, the Emax turned out to be 0% and the EC50 is more than 10000 nM. Further, the “5-HT2B % Activation @ 10 µM” value at 5-HT2B stood at 0%.

At 5-HT2A, `COc1ccc(F)c2[nH]nc(CCN3CCC3)c12` [Example A47, 3-(2-(azetidin-1-yl)ethyl)-7-fluoro-4-methoxy-1H-indazole] showed an Emax of 88% and an EC50 of 105 nM. In addition, on 5-HT2C, the maximum response (Emax) came out at 72% and the 50% effective concentration (EC50) amounted to 64 nM. In addition, at 5-HT2B, the “5-HT2B % Activation @ 10 µM” value was 17%.

Regarding `COc1ccc(F)c2[nH]nc(CCN3CCC4CC43)c12` (centres unmarked) [Example A49, 3-(2-(2-azabicyclo[3.1.0]hexan-2-yl)ethyl)-7-fluoro-4-methoxy-1H-indazole], the Emax at 5-HT2A is 69%; at 5-HT2C, 59%. Moreover, the EC50 was 216 nM on 5-HT2A and 166 nM at 5-HT2C. Besides, the “5-HT2B % Activation @ 10 µM” value at 5-HT2B amounted to 7%.

Turning to `COc1cc(F)c2[nH]nc(CCN(C)C)c2c1` [Example A50, 2-(7-fluoro-5-methoxy-1H-indazol-3-yl)-N,N-dimethylethan-1-amine], the Emax is 79% at 5-HT2A and 11% on 5-HT2C. Moreover, the EC50 on 5-HT2A is 242 nM; at 5-HT2C it was more than 10000 nM. For the same molecule, the “5-HT2B % Activation @ 10 µM” value at 5-HT2B turned out to be 2%.

For `CCN(C)CCc1n[nH]c2c(F)cc(OC)cc12` [Example A51, N-ethyl-2-(7-fluoro-5-methoxy-1H-indazol-3-yl)-N-methylethan-1-amine], the Emax was determined as 85% on 5-HT2A and 43% at 5-HT2C. Also, the EC50 worked out at 88 nM at 5-HT2A and 1370 nM at 5-HT2C. Besides, the “5-HT2B % Activation @ 10 µM” value on 5-HT2B amounted to 1%.

Consider `COc1cc(F)c2[nH]nc(CCN(C)C(C)C)c2c1` [Example A52, N-(2-(7-fluoro-5-methoxy-1H-indazol-3-yl)ethyl)-N-methylpropan-2-amine], for which, on 5-HT2A, the Emax came to 42% and the concentration for a half-maximal effect (EC50) is 650 nM. On 5-HT2C, this molecule displayed an Emax of 0% and a 50% effective concentration (EC50) of more than 10000 nM. Moreover, the “5-HT2B % Activation @ 10 µM” value at 5-HT2B is 0%.

Turning to `COc1cc(F)c2[nH]nc(CCN3CCC3)c2c1` [Example A53, 3-(2-(azetidin-1-yl)ethyl)-7-fluoro-5-methoxy-1H-indazole], the results for the maximal response (Emax) on 5-HT2A and at 5-HT2C were 94% and 48%, respectively. Besides, the EC50 at 5-HT2A was determined as 318 nM; at 5-HT2C it was 1180 nM. For the same molecule, the “5-HT2B % Activation @ 10 µM” value on 5-HT2B came out at 0%.

On 5-HT2A, `COc1cc(F)c2[nH]nc(CCN3CCC4CC43)c2c1` (centres unmarked) [Example A55, 3-(2-(2-azabicyclo[3.1.0]hexan-2-yl)ethyl)-7-fluoro-5-methoxy-1H-indazole] yielded an Emax of 86.2% and a half-maximal effective concentration (EC50) of 39.8 nM. At 5-HT2C, the maximum response (Emax) came out at 87% and the EC50 amounted to 207 nM. The “5-HT2B % Activation @ 10 µM” value at 5-HT2B amounted to 48%.

On 5-HT2A, `COc1cc2c(CCN3CCC3)n[nH]c2cc1F` [Example A56, 3-(2-(azetidin-1-yl)ethyl)-6-fluoro-5-methoxy-1H-indazole] returned a maximal effect (Emax) of 90% and a concentration giving a half-maximal response (EC50) of 105 nM. At 5-HT2C, this molecule gave an Emax of 50% and an EC50 of 3070 nM. Also, the “5-HT2B % Activation @ 10 µM” value on 5-HT2B is on record as 11%.

On 5-HT2A, `COc1cc2c(CCN3CC(C)C3)n[nH]c2cc1F` [Example A57, 6-fluoro-5-methoxy-3-(2-(3-methylazetidin-1-yl)ethyl)-1H-indazole] registered an Emax of 70% and an EC50 of 610 nM. For the same molecule, at 5-HT2C, the maximal effect (Emax) was 3% and the EC50 is more than 10000 nM. Also, at 5-HT2B, the “5-HT2B % Activation @ 10 µM” value is on record as 0%.

With `COc1cc2c(CCN3CCC3C)n[nH]c2cc1F` (centres unmarked) [Example A58, 6-fluoro-5-methoxy-3-(2-(2-methylazetidin-1-yl)ethyl)-1H-indazole], the Emax was determined as 57% on 5-HT2A and 19% on 5-HT2C. The EC50 at 5-HT2A is 1130 nM; at 5-HT2C, more than 10000 nM. On 5-HT2B, the “5-HT2B % Activation @ 10 µM” value turned out to be 0%.

Regarding `COc1cc2c(CCN3CCCC3)n[nH]c2cc1F` [Example A59, 6-fluoro-5-methoxy-3-(2-(pyrrolidin-1-yl)ethyl)-1H-indazole], at 5-HT2A, the Emax was determined as 79% and a half-maximal response (EC50) required 202 nM. In addition, at 5-HT2C, the Emax turned out to be 66% and the EC50 was found to be 3870 nM. In addition, at 5-HT2B, the “5-HT2B % Activation @ 10 µM” value is given as 5%.
